Values after ≈ are worked out from the molar mass of the structure shown. Read-outs that look alike come from different tables or passages of the source.
Assays:
[1] = molecular target: T1, CIB1 and αIIb interaction (GST-CIB1 : F-αIIb peptide) (Homo sapiens, UniProt Q99828); experiment: FP assay, 384-well format (screen); type: binding; set-up: 384-well SCREEN Efficacy (%): concentration or dose not given beside the values; conditions: F-αIIb peptide; for 384-well SCREEN Confirm?: YES/NO; for IC50: read-out: 384-well SCREEN IC50
T1 construct: made in house; host or cells: BL-21 plus RIL cells (E. coli)
T1 sequence (Q99828 1-191): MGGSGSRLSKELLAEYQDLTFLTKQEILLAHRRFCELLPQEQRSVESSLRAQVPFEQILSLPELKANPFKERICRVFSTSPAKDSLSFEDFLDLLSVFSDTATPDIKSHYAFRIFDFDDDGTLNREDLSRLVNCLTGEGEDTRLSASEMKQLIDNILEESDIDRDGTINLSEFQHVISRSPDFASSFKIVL

[2] = molecular target: T2, GST-CIB1 : F-scrambled peptide (Homo sapiens, UniProt Q99828); experiment: FP scrambled-peptide counter screen, 384-well format; type: binding; conditions: F-scrambled peptide; for 384-well COUNTERSCREEN Confirm?: *: Curve in opposite direction; for IC50: read-out: 384-well COUNTERSCREEN IC50
T2 construct: made in house; host or cells: BL-21 plus RIL cells (E. coli)
T2 sequence (Q99828 1-191): T1 sequence (Q99828 1-191)

[3] = molecular target: T3, CIB1 and αIIb interaction (CIB1-GST : F-αIIb peptide) (Homo sapiens, UniProt Q99828); experiment: FP assay, 1536-well qHTS format (primary and confirmatory screen); type: binding; conditions: for CONFIRMATORY SCREEN Confirm?: YES/NO call; for CONFIRMATORY SCREEN Curve Class: qHTS curve class
T3 construct: made in house; host or cells: BL-21 plus RIL cells (E. coli)
T3 sequence (Q99828 1-191): T1 sequence (Q99828 1-191)

[4] = molecular target: T2, GST-CIB1 : F-scrambled peptide; experiment: FP scrambled-peptide counter screen, 1536-well format; type: binding; conditions: scrambled-peptide counterscreen; for COUNTERSCREEN Confirm?: YES/NO call; for COUNTERSCREEN Curve Class: qHTS curve class; for IC50: read-out: COUNTERSCREEN IC50
[5] = molecular target: T4, GST-CIB1:F-αIIb interaction (Homo sapiens, UniProt Q99828); experiment: Gel-based (in-gel) binding assay; conditions: 1 μM GST-CIB1, 400 nM F-αIIb; 60 μM, 1:2, 4-points
T4 construct: made in house; host or cells: BL-21 plus RIL cells (E. coli)
T4 sequence (Q99828 1-191): T1 sequence (Q99828 1-191)

[6] = molecular target: T5, GST-CIB1 : F-αIIb peptide (Homo sapiens, UniProt Q99828); experiment: FP assay in the presence of glutathione (GSH), thiol reactivity; type: binding; conditions: for GSH/CIB1 IC50 ratio: ratio of GSH (+) IC50 to GSH (-) IC50; for GSH Assay Result: thiol reactivity call: No change / Active
T5 construct: made in house; host or cells: BL-21 plus RIL cells (E. coli)
T5 sequence (Q99828 1-191): T1 sequence (Q99828 1-191)

[7] = system: washed human platelets; experiment: Human platelet aggregation assay (thrombin-induced); type: cell-based; conditions: 10 μM compound
Description: A classical challenge in target-based drug discovery is moving from biochemical to cellular assay and the essential step of determining if the compounds of interest can perform in a cellular context. After characterization of the compounds in a series of biochemical assay formats, our next step was to assess their activity in a cellular environment. Our previous studies have shown that the interaction of the cytoplasmic domain of integrin αIIbβ3, a key regulator of platelet aggregation, with CIB1, is involved in downstream signaling in platelet activation and aggregation. We sought to determine whether our candidate compounds were inhibiting this interaction by evaluating them for platelet function in a human platelet aggregation assay. We prepared platelet-rich plasma (PRP) and washed the platelets as previously described[44] and then performed a platelet aggregation assay using the washed platelet suspensions (2 × 10^8/platelets/mL) followed by the recording of aggregation traces (see Materials and Methods Section). To induce platelet aggregation, 0.03 U/mL of thrombin, a physiological agonist of platelet activation, was used.
Figure 6 Effect of compounds on human platelet activation. Representative platelet aggregation tracings of washed human platelet suspensions pretreated for 30 min at 37 °C with vehicle (DMSO) or compounds at indicated concentrations followed by activation with thrombin (0.03–0.1 U/mL). Panel (A): NCGC00071855. Panel (B–D): NCGC00351170. Panel (E): CD62P exposure was in the presence of NCGC00351170. Data represents mean ± SEM, n = 4 individual experiments; ns = non significant *P < 0.05, ***P < 0.001, ****P < 0.0001.
Whole blood was drawn by venipuncture from healthy adult volunteers (of both gender and race) with informed consent. Approval was obtained from the institutional review boards of Thomas Jefferson University, according to the Declaration of Helsinki. Blood was collected in acidified citrate dextrose as an anticoagulant. Platelet-rich plasma (PRP) and washed platelets were prepared, as previously described.[44] Platelet aggregation was performed using washed platelet suspensions containing 2 × 10^8 platelets/mL using a Chrono-Log Lumi-Aggregometer (Chrono-Log), as described previously.[11] Aggregation traces were recorded by using Aggrolink software (Chrono-Log). Thrombin-induced P-selectin (CD62P) exposure was performed using Accuri C6 flowcytometer (BD Bioscience) as described previously.[11]
Figure S9: Effect of compounds on human platelet activation. Representative platelet aggregation
tracings of washed human platelet suspensions treated with vehicle (DMSO) or indicated
compounds at 10 μM for 30 minutes at 37 °C followed by activation with thrombin (0.03U/mL).

[8] = In vitro ADME: solubility; type: physicochemical; conditions: read-out: Solubility
[9] = In vitro ADME: PAMPA permeability
[10] = molecular target: T6, CIB1 and αIIb peptide (Homo sapiens, UniProt Q99828); experiment: Intrinsic tryptophan fluorescence (ITF) assay
T6 sequence (Q99828 1-191): T1 sequence (Q99828 1-191)

[11] = confirmatory screen, negative sign = inhibitory curve
[12] = confirmatory screen, negative = inhibition
[13] = confirmatory screen, read-out: CONFIRMATORY SCREEN IC50
[14] = FP assay in the presence of glutathione (GSH +), read-out: GSH (+) Assay IC50
[15] = FP assay without glutathione (GSH -), read-out: GSH (-) Assay IC50

384-well SCREEN Efficacy (%) [1] | 384-well SCREEN Confirm? [1] | IC50 [1] | 384-well COUNTERSCREEN Efficacy (%) [2] | 384-well COUNTERSCREEN Confirm? [2] | IC50 [2] | CONFIRMATORY SCREEN Confirm? ([3]; confirmatory screen) | CONFIRMATORY SCREEN Curve Class [3, 11] | CONFIRMATORY SCREEN Efficacy (%) [3, 12] | IC50 [3, 13] | COUNTERSCREEN Efficacy (%) [4] | COUNTERSCREEN Confirm? [4] | COUNTERSCREEN Curve Class [4] | IC50 [4] | Active in Gel Assay? [5] | IC50 [6, 14] | IC50 [6, 15] | GSH/CIB1 IC50 ratio [6] | GSH Assay Result [6] | IC50 [10] | SMILES | also measured
76% | YES | 7.9 µM | 50% | YES | 31.6 µM | YES | -1.4 | -40% | 5.6 µM | -36% | YES | -1.4 | 25.1 µM | YES | 3.1 µM | 6.3 µM | 0.5 | No change | 53.1 µM | O=C(c1cccs1)c1no[n+]([O-])c1C(=O)c1cccs1 [NCGC00071855-04] | Platelet Aggregation Result [7]: Active; solubility [8]: 9 µg/mL (≈ 29.4 µM); Papp [9]: 156 ×10⁻⁶ cm/s
76% | YES | 1.3 µM | 23% | YES | > 120 µM | YES | -1.4 | -74% | 2.8 µM | -34% | YES | -1.2 | 31.6 µM | YES | 0.326 µM | 0.232 µM | 1.4 | No change | 16.6 µM | Oc1ccc2ccccc2c1SSc1c(O)ccc2ccccc12 [NCGC00186047-02, IPA-3, reference compound] | Efficacy (%) ([3]; qHTS primary screen hits, Table S2, negative = inhibition): -21%; Curve Class ([3]; qHTS primary screen hits, Table S2, negative sign = inhibitory curve): -1.4; IC50 ([3]; qHTS primary screen hits, Table S2, read-out: IC50): 10.3 µM; shift in potency in the presence of GSH ([6]; with vs without 10 μM reduced GSH): no shift

Reference: PMC11249646, “Small-Molecule Disruptors of the Interaction between Calcium- and Integrin-Binding Protein 1 and Integrin αIIbβ3 as Novel Antiplatelet Agents” (ACS Pharmacology & Translational Science, 2024)
